# Laboratory results published in patent publication US12415819B2, “Cu- and Ni-catalyzed decarboxylative borylation reactions” (The Scripps Research Institute, priority 2017, dated 2025).
# Where “and” joins values, the source holds several entries; their conditions need not be identical. Equal values may be shown once.
# Assays:
# [1] = molecular target: elastase in CF patient sputum (Homo sapiens (Human), UniProt P08246); assay: Elastase inhibition assay in CF patient sputum; type: biochemical
# Chain of elastase in CF patient sputum (P08246 30-267): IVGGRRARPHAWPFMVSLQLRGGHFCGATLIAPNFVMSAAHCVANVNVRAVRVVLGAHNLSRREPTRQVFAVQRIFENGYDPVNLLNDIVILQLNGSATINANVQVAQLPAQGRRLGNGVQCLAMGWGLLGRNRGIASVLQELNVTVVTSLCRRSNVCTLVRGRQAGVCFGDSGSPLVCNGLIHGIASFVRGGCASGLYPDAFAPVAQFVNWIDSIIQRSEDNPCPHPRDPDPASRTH
# Protocol: (§1) Serially diluted compounds in DMSO were dispensed into a 384-well black opaque plate by Echo dispenser. 0.1 μg/mL human neutrophil elastase (EPC, Catalog# SE563, Owensville, Ms.) or human sputum diluted with assay buffer (100 mM HEPES, 500 mM NaCl, 0.02% Tween 20) was added into the 384-well plate, and was incubated with different compounds at different concentrations for 30 minutes at room temperature. The final concentration of DMSO in the reaction was 0.1%. Elastase substrate MeOSuc-AAPV-AMC (Bachem, Catalog #I-1270, Torrance, CA) of 100 μM final concentration was then added into the reaction system just before enzyme kinetics were read on PheraSTAR plate reader at excitation of 380 nm and emission of 460 nm with a 3-minutes interval for 30 minutes in total. Slope of fluorescence intensity vs. time representing the Vmax of enzyme activity was calculated with MARS software. % relative inhibition was calculated as: […]
# (§2) IC50 was calculated based on the % relative inhibition curve using log(agonist) vs. response (three parameters) method with Prism software. All experiments were performed in triplicate for at least three independent times.
# (§3) Human sputum was purchased from Discovery Life Sciences (Los Osos, CA). Human sputum was diluted 1:10 in volume with assay buffer (100 mM HEPES, 500 mM NaCl, 0.02% Tween 20) followed by vigorous vortexing. The 1:10 diluted human sputum was further diluted into 1:30, 1:90, 1:270, 1:810, and 1:2430. The elastase concentration was determined by elastase inhibition assay as described above. Specifically, a series of standards of human neutrophil elastase (starting at 2 μg/mL and further diluted 1:2 in volume) were prepared in the assay buffer. The samples and standards were plated in a 384-well black solid bottom plate; the substrate MeOSuc-AAPV-AMC of 100 μM final concentration was then added into the reaction system just before enzyme kinetics were read on PheraSTAR plate reader as mentioned above. The slope of enzymatic kinetic reading was calculated by MARS software. The elastase levels of the human sputum were calculated based on the standard curve.
# [2] = molecular target: elastase in COPD patient sputum (Homo sapiens (Human), UniProt P08246); assay: Elastase inhibition assay in COPD patient sputum; type: biochemical
# Chain of elastase in COPD patient sputum (P08246 30-267): as above
# Protocol: as §1, §2, §3
# [3] = Plasma Stability Assay; type: in vitro ADME, mouse
# Protocol: Propantheline was used as the reference compound in this assay; all stock solutions were stored at −40° C. before use. • 2) Test system: CD-1 Mouse Plasma from a minimum of 20 male individuals were obtained from BioreclamationlVT (Catalog #: […]2-M; Batch #: MSE244515). EDTA-K2 was used as the anticoagulant. Procedure:
# The frozen plasma was thawed in a water bath at 37° C. prior to the experiments. The plasma was centrifuged at 4000 rpm for 5 min and the clots were removed if necessary.
# The pH was adjusted to 7.4±0.1 as necessary. An intermediate solution (1 mM) was prepared and a 100 μM dosing solution was prepared by diluting 10 μL of the intermediate solution with 90 μL 45% MeOH/H2O. Duplicate of test samples were made by mixing 98 μL of blank plasma with 2 μL of dosing solution (100 μM) to achieve the final concentration of 2 μM. Samples were incubated at 37° C. At each time point (0, 10, 30, 60, and 120 min), 400 μL of stop solution (consisting of 200 ng/mL tolbutamide and 20 ng/mL buspirone in 50% MeOH/CH3CN) was added to precipitate protein under thorough mixing. The sample plates were then centrifuged at 4,000 rpm for 10 min. An aliquot of supernatant (100 μL) was transferred from each well and mixed with 200 of μL ultrapure water. The samples were shaken at 800 rpm for about 10 min before LC-MS/MS analysis.
# Data analysis: The % remaining of test compound after incubation in plasma was calculated using following equation: Remaining=100×(PAR at Tn/PAR at T0) where PAR is the peak area ratio of analyte versus internal standard (IS) and The appointed incubation time points are T0 (0 min), Tn (n=0, 10, 30, 60, 120 min).
# LC-MS/MS condition: Each compound was analyzed by LC/MS using an ACE 5-phenyl 50×2.1 mm column (Part No. ACE-125-0502) with 0.1% formic acid in water and 0.1% formic acid in acetonitrile as the mobile phases. Tobultamide was used as the internal standard. Data collected were processed by Analyst 1.6.2 software and MultiQuant 3.0.2 software.
# [4] = in vitro
# Protocol: 100 mM potassium phosphate buffer, pH 7.4. • 2. 10 mM MgCl2 • 3) Compound Dilution:
# Intermediate solution was prepared by diluting 5 μL of compound or control stock solution (10 mM in DMSO) with DMSO (45 μL) and 1:1 Methanol/Water (450 μL) (concentration=100 μM, 45% MeOH). Working solution was prepared by diluting 50 μL of the intermediate solution with 450 μL of 100 mM potassium phosphate buffer, pH=7.4 (centration=10 μM, 4.5% MeOH). • 4) NADPH regenerating system (final Isocitric dehydrogenase concentration=1 unit/mL at incubation) comprised:
# 10 μL/well of compound working solution or control working solution was added to all plates (T0, T5, T10, T20, T30, T60, NCF60) except the matrix blank. 80 μL/well of microsome solution was added to every plate. The mixtures of microsome solution and compound were incubated at 37° C. for about 10 min. 10 μL/well of NADPH regenerating system (pre-warmed to 37° C.) was then added to every plate to start the reaction. […] For NCF60 (abbreviation of no co-factor) no NADPH regenerating system was added, but was replaced by 10 μL/well of potassium phosphate buffer (100 mM, pH 7.4); the resulting mixture was incubated at 37° C. for 1 h.
# The reactions were then terminated with the stop solution (cold at 4° C.) containing 100 ng/mL Tolbutamide and 100 ng/mL Labetalol ([…]). The sampling plates were shaken for approximately 10 minutes, then were centrifuged at 4000 rpm for 20 min at 4° C. While centrifuging, 8 new 96 well plates were loaded with […] of HPLC grade water. 100 μL of supernatant was finally added to 300 μL of HPLC grade water and mixed for LC/MS/MS analysis.
# The equation of first order kinetics was used to calculate T1/2 and CIint(mic): […]
# [5] = Kinetic Solubility Test; type: physicochemical
# Protocol: The stock solution of each compound (10 μL; 10 mM in DMSO) was diluted with phosphate buffer solution (490 μL; 50 mM, pH 6.8). The resulting mixture was shaken for 24 h. Samples were then filtered.
# [6] = system: Caco-2 cells; assay: in vitro; conditions: Caco-2
# Protocol: (§4) Digoxin, fenoterol, and propranol were used as standards respectively. Transport Method:
# (§5) The transport buffer used in the study was HBSS with 10 mM HEPES at pH 7.40±0.05. Compounds were tested at 2 μM bi-directionally in duplicates. Digoxin was tested at […] bi-directionally in a duplicate, while fenoterol and propranolol were tested at 2 μM in A(apical) to B (basolateral) direction in duplicates. The final DMSO concentration was adjusted to less than 1%. The plate was incubated for 2 hours in a CO2 incubator at 37±1° C., with 5% CO2 at saturated humidity without shaking. All samples, after mixing with acetonitrile containing internal standard, were centrifuged at 4000 rpm for 20 min. Subsequently,100 μL supernatant solution was diluted with 100 μL distilled water for LC/MS/MS analysis. Concentrations of test and control compounds in starting solution, donor solution, and receiver solution were quantified by LC/MS/MS methodologies, using peak area ratio of analyte/internal standard. After transport assay, lucifer yellow rejection assay was applied to determine the Caco-2 cell monolayer integrity.
# (§6) Data analysis: The apparent permeability coefficient Papp (cm/s) was calculated using the equation:
# (§7) The efflux ratio was calculated using the equation: Efflux ratio=Papp(BA)/Papp(AB)
# (§8) Percent recovery was calculated using the equation: % Recovery=100×[(Vr·Cr)+(Vd·Cd)]/(Vd·C0) Where Vd is the volume in the donor chambers (0.075 mL on the apical side, 0.25 mL on the basolateral side); Cd and Cr are the final concentrations of transport compound in donor and receiver chambers, respectively.
# [7] = molecular target: T1, human neutrophil elastase (Homo sapiens (Human), UniProt P08246); assay: Elastase inhibition assay, purified human neutrophil elastase; type: biochemical; conditions: for IC50: read-out: IC50
# T1 sequence (P08246 30-247): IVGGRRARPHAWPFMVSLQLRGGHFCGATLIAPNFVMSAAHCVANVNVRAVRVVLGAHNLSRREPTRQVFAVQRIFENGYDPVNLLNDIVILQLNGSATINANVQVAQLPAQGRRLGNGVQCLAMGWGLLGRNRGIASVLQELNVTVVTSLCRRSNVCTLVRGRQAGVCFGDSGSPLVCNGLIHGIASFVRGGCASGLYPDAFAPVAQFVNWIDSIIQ
# Protocol: as §1, with “Elastase substrate MeOSuc-AAPV-AMC (Bachem, Catalog #I-1270, Torrance, CA) of 100 μM final concentration was then added into the reaction system just before enzyme kinetics were read on PheraSTAR plate reader at excitation of 380 nm and emission of 460 nm with a 3-minutes interval for 30 minutes in total.” left out
# as §2
# [8] = molecular target: T1, human neutrophil elastase; assay: Time dependence of elastase inhibition; type: biochemical
# Protocol: The procedure for the elastase inhibition assay was followed with slight modifications. 0.1 μg/mL human neutrophil elastase was incubated with a range of concentrations of inhibitors for 5, 15, 30 and 60 minutes before substrate MeOSuc-AAPV-AMC of 100 μM final concentration was added. Enzyme kinetics were read on PheraSTAR plate reader and IC50 was calculated with the method described above.
# [9] = molecular target: T1, human neutrophil elastase; assay: Elastase inhibition assay, purified human neutrophil elastase; type: biochemical
# [10] = in vitro; conditions: human
# Protocol: as §4, §5, §6, §7, §8
# [11] = mouse, microsomes, 1 h, 1 μM, pH 7.4
compound,measurement,setting,value
"COC(=O)N[C@H](C(=O)N1CCC[C@H]1C(=O)N[C@H](B(O)O)C(C)C)C(C)C [Compound 50, ((R)-1-((S)-1-((methoxycarbonyl)-L-valyl)pyrrolidine-2-carboxamido)-2-methylpropyl)boronic acid]",IC50,[1]; CF sputum,510 ± 40 pM
same,IC50,[2],274 ± 4 pM
same,% Remaining (mean),"[3]; CD-1 Mouse Plasma, 0 min, 2 μM, 37° C.",100.0%
same,% Remaining (mean),"[3]; CD-1 Mouse Plasma, 10 min",100.5%
same,% Remaining (mean),"[3]; CD-1 Mouse Plasma, 30 min",105.2%
same,% Remaining (mean),"[3]; CD-1 Mouse Plasma, 60 min",88.0%
same,% Remaining (mean),"[3]; CD-1 Mouse Plasma, 120 min",76.7%
same,Extraction ratio,"[4]; mouse, 1 μM, pH 7.4",<0.3
same,Remaining (*NCF = 60min),[4]; [11],99.0%
same,Remaining (T = 60 min),[4]; [11],78.5%
same,CLint scaled at 1 μM,"[4]; mouse, microsomes, pH 7.4",< 38 mL/min/kg
same,half-life at 1 μM,"[4]; mouse, microsomes, pH 7.4",> 2.42 h
same,microsomal CLint at 1 μM,"[4]; mouse, microsomes, pH 7.4",< 9.6 µL/min/mg
same,solubility kinetic at 24 h,"[5]; aqueous buffer, kinetic from dmso stock, phosphate buffer pH 6.8, 24 h",> 74.2 µg/mL and > 200 µM
CC(C)[C@H](NC(=O)c1ccc(C(=O)NS(=O)(=O)c2ccc(Cl)cc2)cc1)C(=O)N1CCC[C@H]1C(=O)N[C@H](C(=O)C(F)(F)F)C(C)C [Compound 51a],% Remaining (mean),"[3]; mouse, plasma, 10 min",99.0%
same,% Remaining (mean),"[3]; mouse, plasma, 0.5 h",109.1%
same,% Remaining (mean),"[3]; mouse, plasma, 1 h",99.5%
same,% Remaining (mean),"[3]; mouse, plasma, 2 h",106.6%
same,CD-1 Mouse Plasma % Remaining @ 2 hr,"[3]; mouse, plasma, 2 h",106.6%
same,CLint(liver),[4]; MLM 0.5,76.6 mL/min/kg
same,Remaining (*NCF = 60min),"[4]; MLM 0.5, no co-factor",91.7%
same,Remaining (T = 60 min),"[4]; MLM 0.5, with NADPH regenerating system",52.2%
same,Kinetic Solubility pH = 6.8,"[5]; phosphate buffer pH 6.8, 24 h",119.75 μg/mL
same,solubility kinetic at 24 h,"[5]; phosphate buffer pH 6.8, 24 h",174.28 µM
same,Kinetic solubility (pH 6.8),[5]; summary table,174.28 μm
same,Caco-2 (Papp A − B),[6],<0.16 10^−6 cm/s
same,Caco-2 (Papp B − A),[6],0.61 10^−6 cm/s
same,Mean Papp A to B,[6],<0.08 10^−6 cm/s
same,Mean Papp B to A,[6],<0.12 10^−6 cm/s
same,Mean Recovery % A to B,[6],<74.15%
same,Mean Recovery % B to A,[6],<90.87%
Cc1c(-c2ccnn2-c2ccc(C#N)cc2)cc(C(=O)NCC(O)CNC(=O)c2cc(-c3ccnn3-c3ccc(C#N)cc3)c(C)n(-c3cccc(C(F)(F)F)c3)c2=O)c(=O)n1-c1cccc(C(F)(F)F)c1 [Compound 58],LipE,[7]; Purified NHE,5.04
same,IC50,"[7]; Purified NHE, 30 minutes incubation at room temperature, 100 μM substrate",11.1 ± 0.2 pM
same,IC50,[7]; purified HNE,11 pM
same,IC50,[1]; CF sputum,203000 ± 31200 pM
same,LipE,[1]; CF sputum,0.77
same,inhibitory activity in patient sputum versus purified HNE (in words),[1]; sputum samples of CF and COPD patients,potencies diminished drastically
same,IC50,[2],16200 ± 2130 pM
same,LipE,[2],1.87
same,IC50,[8]; 5 min incubation with inhibitor,11 pM
same,IC50,[8]; 15 min incubation with inhibitor,4 pM
same,IC50,[8]; 30 min incubation with inhibitor,2.6 pM
same,increase in potency with increasing incubation times,[8]; between 5-60 minutes,55 fold
same,Ki,"[9]; 2.5, 25, 50 and 100 μM substrate, mixed model",2.7 pM
same,Ki,[9]; purified HNE,2.7 pM
CC(C)NCC(O)COc1cccc2ccccc12 (centres unmarked) [Propranolol],"Papp A→B at 120 min, 2 μM","[10]; Caco-2, pH 7.4",19.8 ×10⁻⁶ cm/s
same,"recovery at 2 h, 2 μM","[10]; Caco-2, pH 7.4, Mean Recovery % A to B",69.2%
